Measurements: ChEMBL document CHEMBL1201862, “PubChem BioAssay data set” (2004)
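These data come from cells grown in 96-well plates and exposed to compound for 48 hours at five concentrations. At the GI50, growth is halved.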 Active and inactive are the calls of the source. Cut-off read from the data, not from the text of the source: active = GI50 up to about 1.1 µM and inactive = higher.

How the values were obtained:
Assay in all cases: NCI anticancer screen, dose series, 48 h
A498 = system: A498
HL-60 = system: HL-60
UACC-257 = system: UACC-257
SNB-75 = system: SNB-75
SK-MEL-2 = system: SK-MEL-2
HCT-15 = system: HCT-15
TK-10 = system: TK-10
SF-539 = system: SF-539
ACHN = system: ACHN
SF-268 = system: SF-268
NCI-H460 = system: NCI-H460
BT-549 = system: BT-549
COLO 205 = system: COLO 205
MDA-N = system: MDA-N
HCC 2998 = system: HCC 2998
DMS-114 = system: DMS-114
SN12C = system: SN12C
NCI-H226 = system: NCI-H226
RPMI-8226 = system: RPMI-8226
SR = system: SR

Measured: GI50

CCCCCCCCCCCCCCCC(=O)OCC1OC(OC)C(NC(=O)N(CCCl)N=O)C(O)C1O (stereo not given)
inactive: A498 29.6 µM | HL-60 4.57 µM | UACC-257 19.7 µM | SNB-75 7 µM | SK-MEL-2 17.7 µM | TK-10 22.8 µM | SF-539 3.32 µM | ACHN 13.4 µM | SF-268 3.34 µM | NCI-H460 5.61 µM | BT-549 28.3 µM | COLO 205 19.2 µM | MDA-N 15.1 µM | HCC 2998 18.4 µM | DMS-114 13.2 µM | SN12C 13.4 µM | NCI-H226 15.5 µM | RPMI-8226 21.3 µM
13.1 µM: HCT-15
active: SR 0.851 µM

O=C(Cn1ccnc1[N+](=O)[O-])N(CCO)CCO
inactive: A498 > 1250 µM | HL-60 > 250 µM | UACC-257 > 250 µM | SNB-75 > 1250 µM | SK-MEL-2 191 µM | TK-10 > 250 µM | SF-539 > 250 µM | ACHN > 250 µM | SF-268 > 250 µM | NCI-H460 > 1250 µM | BT-549 > 250 µM | COLO 205 > 1250 µM | MDA-N > 250 µM | HCC 2998 > 250 µM | DMS-114 > 1250 µM | SN12C > 250 µM | NCI-H226 > 250 µM | RPMI-8226 25 µM | SR > 79.1 µM
> 250 µM: HCT-15

NC(=O)/C=C/c1c[nH]c2nccnc12
3.27 µM: HCT-15
active: SN12C 1.01 µM | NCI-H226 0.78 µM
inactive: A498 2.58 µM | HL-60 2.26 µM | UACC-257 4.11 µM | SNB-75 1.78 µM | SK-MEL-2 1.79 µM | TK-10 2.43 µM | SF-539 2.24 µM | ACHN 2.71 µM | SF-268 2.05 µM | NCI-H460 3.7 µM | BT-549 2.2 µM | COLO 205 1.67 µM | MDA-N 3.81 µM | HCC 2998 1.14 µM | DMS-114 2.22 µM | RPMI-8226 2.43 µM | SR 1.66 µM
